Test [1] relates to prostatic cell line DU145. Nature of the test: MTT cell proliferation index, DU145. Type of test: cell-based, human. The following applies: for Cell proliferation index: control = 100%, MTT after 48 hours. The protocol: The effects of the PACE4 inhibitors on cell proliferation were evaluated. MTT assay was used to evaluate the effects of PACE4 inhibitors on cell proliferation. MTT (3-(4,5-Dimethylthiazol-2-yl)-2,5-diphenyltetrazolium bromide) assay is a standard colorimetric assay for measuring cellular proliferation. Yellow MTT is reduced to purple formazan in the mitochondria of living cells. This reduction takes place only when mitochondrial reductase enzymes are active. Conversion is directly related to the number of viable cells. The MTT assay is quantitative and more sensitive than viability using trypan blue and can also be adapted to 96 well formats, whereas trypan blue tests must be read individually. Because the MTT assay requires less cell manipulation than [^3H]thymidine incorporation assays (no cell harvesting or medium changes are necessary), the possibility of error is reduced and the standard deviation values are lower. […] Other assays also known can be used to determine the effects of an inhibitor on the proliferation of a cell.
The index of cellular proliferation of cells treated with the ML and acetyl-ML (CH3CO—NH-[…]-CONH2 (SEQ ID NO: 5), see Table 2) peptides were measured using the colorimetric MTT assay (thiazolyl blue tetrazolium bromide; Sigma-Aldrich). Briefly, cells were seeded in 96-well plate (BD Biosciences) in triplicate with 100 μl of a 3.5×10^4 cells/ml cell suspension in complete growth medium. The following day, cells were carefully washed twice with PBS and media were replaced with 100 μl of either RPMI or conditioned growth media. Conditioned growth medium preparation consists in 1.2×10^5 cells seeded in 6-well plates with complete growth media. The next day, cells are washed twice with PBS and the media are replaced with 1 ml RPMI growth medium. 48 hours later, the conditioned media are collected, filtered through […] syringe filter units and incubated on different cell lines.
48 hours later, 20 μl of a MTT solution (5 mg/ml in PBS 1×) was added to each well for 4.5 h at 37° C./5% CO2. The media was then discarded and the cells were solubilized with 100 μl isopropanol/0.04 N HCl solution. The absorbance was measured at a wavelength of 550 nm with a reference at 650 nm in microplate reader (SpectraMax190™; Molecular Devices).

For test [2], the system named is DU145 cells implanted subcutaneously. Nature of the test: DU145 xenograft tumor growth in nude mice. It is filed as in vivo, Nu/Nu mice. The following applies: intra-tumoral 30 mg/kg once every 2 days, start at 50 mm^3 twenty days after implantation; vehicle control 160 mm^3. The text has this: To test the effects of PACE4 inhibitors in vivo, a nude mouse model was used in order to validate PACE4's role in tumor progression within an integrated system. […] The genetic basis of the nude mouse mutation is a disruption of the Foxn1 gene. The nude mouse can receive many different types of tissue and tumor grafts, as it mounts no rejection response. These xenografts are commonly used to test new methods of treating tumors. Nude mice were used to test the tumor progression of control DU145 cells compared to PACE4 silenced DU145 cells (clone 4-2) (FIG. 11). Control tumor received vehicle (DMSO) injections. Control tumor continued their growth pattern, reaching an average size of 160 mm^3, while treated tumors only reached a size of 75 mm^3 (FIG. 11A). Consequently, PACE4 inhibition by the specific inhibitors described herein reduces tumors growth. The nude mouse model is well known and extensively tested (Naomoto et al., 1987, J. Cancer Res. Clin. Oncol., 113: 544-549; Taetle et al., 1987 Cancer Treat. Rep. 71: 297-304).
DU145 cells were implanted subcutaneously (sc) at two sites on the backs of Nu/Nu mice, which lack an immune system. […] The genetic basis of the nude mouse mutation is a disruption of the Foxn1 gene. The nude mouse can receive many different types of tissue and tumor grafts, as it mounts no rejection response. […]

*: point of attachment. Cholyl = C[C@H](CCC(=O)*)[C@H]1CC[C@H]2[C@@H]3[C@H](O)C[C@@H]4C[C@H](O)CC[C@]4(C)[C@H]3C[C@H](O)[C@]12C

For the substance “Cholyl-NH-LLLLRVKR-NH2 (Cholyl-LLLLRVKR-NH2) [cholyl ML]”, the “effect on cell proliferation index, in words” value in test [1] (DU145) was “more potent effects than ML or acetyl-ML peptides”. Moreover, the Cell proliferation index was 86.65% in test [1] (DU145, 1 μM peptide); 38.70% in test [1] (DU145, 10 μM peptide); 4.36% in test [1] (DU145, 100 μM peptide). In addition, the “average tumor size reached” value in test [2] came out at 75 mm^3.
